In patent US5686495A, “Substituted hydrazinedicarboximidamides and methods of use thereof” (Cambridge NeuroScience, Inc., priority 1995, dated 1997):
Where a name gives a salt, the structure may show the parent alone. Read-outs that look alike come from different tables or passages of the source.

Columns and labels:
[1] = system: 3H-glutamate release from rat brain synaptosomes; experiment: Inhibition of K+-evoked 3H-glutamate release from synaptosomes (rapid superfusion); type: cell-based
Procedure: To study the release of presynaptic ^3 H-glutamate, synaptosomes from young rats were used. CD Male rats of 4 to 6 weeks (50-75 g) were used for the preparation of synaptosomes. Rats were killed by decapitation with guillotine and the skull bone was opened in the center with the pointed blade of dissection scissors. The bone is then peeled away with a bone cutter and the brain is pried with a micro spatula. The cerebellum is removed and the rest of the brain is placed in 35 ml of 0.32M Sucrose solution and homogenized in a Thomas glass teflon homogenizer C at the maximum power setting (about 450 rpm) with 16 strokes. The pestle is rinsed with 5 ml of sucrose solution and added to the homogenate. The homogenate is centrifuged for 10 min at 3500 rpm (1500 g) in a SS-34 rotor in Sorvall RC-5B. The resulting pellet (P1) is discarded and the supernatant (S1) is recentrifuged for 20 min at 8700 rpm (8500 g). The supernatant (S2) is discarded and the pellet (P2) is resuspended in 5 ml of 0.32M sucrose and hand homogenized with 4 strokes (Thomas C) and the volume was made up to 8 ml. This homogenate was layered on 20 ml of 0.8M sucrose solution in two centrifuge tubes and spun for 25 minutes at 8700 rpm (8500 g). At the end of this spin, most of the myelin stays at the interphase of 0.32M and 0.8M sucrose and mitochondria pellet as a brown pellet. The synaptosomes are dispersed in the 0.8M sucrose. Using a 10 ml pipette, the 0.8M sucrose layer is collected (without disturbing the top myelin layer or the pellet) and diluted slowly with an equal volume of chilled basal buffer, while stirring gently with a Pasteur pipette. This diluted solution is centrifuged for 10 min at 10,000 rpm (12,000 g) and the pellet is resuspended in 1.5 ml of basal buffer and hand-homogenized in a Wheaton glass-glass 7 ml homogenizer with 8 strokes.
The synaptosomal homogenate is diluted 1 ml to 10 ml with basal buffer. This dilution gives a protein concentration of 500 to 600 μg/ml. One hundred μl of this diluted prep with 50-60 μg of protein is used for each superfusion event. […] The diluted synaptosomal solution was kept on ice until the end of the experiment.
^3 H-glutamate (purchased from NEN) is stored in the refrigerator. Pipette 6 μl ([…]; 40 to 55 Ci/mmol) into a disposable test tube. Add 100 μl of diluted prep and mix gently on vortex and incubate at 30° C. for 10 min. ^3 H-glutamate is taken up by sodium-coupledglutamate transporter present in synaptosomal membranes. After 10 min, dilute the incubation mixture with 690 μl of basal buffer. This solution is then transferred in Tygon tubing that is connected to the synaptosome loading chamber. Using a syringe filler with air, the solution is forced through the Millipore SC--GF/F--Millipore SC filter sandwich. These filters retain the synaptosomes and the solution flows through.
An important component of the superfusion setup is the custom made stainless steel "General Valve" three-valve solenoid operated superfusion chamber with an outlet for the effluent. The three inlets are connected to stainless steel buffer reservoirs that contain (1) wash buffer, (2) control buffer and (3) experimental buffer which are kept under 40 psi of nitrogen gas through teflon tubing connections. The superfusion is controlled through a menu-driven program on an Apple IIe computer. See Turner, J. T. et al., Anal. Biochem. 178:8-16 (1989), and U.S. Pat. No. 4,891,185, the disclosures of which are fully incorporated by reference herein.
The superfusion chamber has a teflon bushing and a stainless steel washer fixed with the flat surface facing the filters. A GF/B filter disc is placed first in the chamber to eliminate the switching related artifacts. The synaptosome loaded sandwich is then placed facing the synaptosomes into the flow followed by RA filter, stainless steel screen and a washer with the flat side facing the screen.

[2] = system: potassium-stimulated 45Ca uptake of synaptosomes; experiment: Potassium-stimulated 45Ca uptake into synaptosomes; type: cell-based, rat; details: Rattus norvegicus; for inhibition at 10 µM: read-out: Inhibition of 45Ca Uptake, % Inhibition @ 10 uM (SEM)
Procedure: Several compounds were also tested to determine whether the Ca^2+ dependent and independent components of glutamate release are related to the blockage of ^45 Ca uptake. Calcium uptake is one step in the cascade of events which occur in neuronal cell death from ischemia. See Bassaclough and Leach, Current Patents Ltd., 2-27. The Ca-flux protocol is as follows. Rat brain synaptosomes were prepared according to Hajos, Brain Res. 93:485 (1975). Synaptosomes were suspended in low potassium "LK" buffer (containing 3 mM KCl) at 2 mg/ml. […] After 5 seconds, the ^45 Ca flux was stopped with 0.9 ml quench solution (LK+10 mM EGTA). The solution was filtered under vacuum and the filters washed with 15 ml of quench buffer. The effect of drug is expressed as % inhibition (or block) of control potassium-stimulated ^45 Ca influx. This method is an adaptation of the method disclosed by Nachsen and Blaustein, J. Physiol. 361:251-268 (1985).

[3] = system: hippocampal slices (Schaffer collateral synaptic potentials); experiment: Hippocampal slice electrophysiology of excitatory synaptic transmission (field EPSP, population spikes); design: species or system Sprague-Dawley rats
Procedure: Transverse sections of hippocampus were obtained from 4-6 week old Sprague-Dawley rats and maintained under standard conditions. […] Extracellular excitatory post synaptic potentials (EPSP's) were recorded by placing a saline-filled glass microelectrode in either the stratum radiatum or stratum lacunosum. Population spikes were recorded by placing an electrode in the stratum pyramidole.

[4] = Rattus norvegicus, read-out: relative level of glutamate release
[5] = Rattus norvegicus, read-out: Inhibition of Glutamate Release (Persistent Component), % Inhibition @ 10 uM
[6] = read-out: Inhibition of 45Ca Uptake, IC50

## N=C(Nc1ccccc1I)N[C@H]1C[C@H]2CC[C@@H]1C2 (relative stereo) [N-((±)-endo-2-norbornyl)-N' (2-iodophenyl)guanidine]
[1]; [4]
  activity at 30 µM: 77%

## Cc1ccccc1CNCc1ccccc1C [Di-(o-methyl)benzyl)amine]
[1]; [4]
  activity at 30 µM: 100%

## C1CCC(N=C(NNC(=NC2CCCCC2)NC2CCCCC2)NC2CCCCC2)CC1 [N,N',N",N"'-Tetracyclohexyl-Hydrazinedicarboximidamide]
[1]; [5]
  inhibition at 10 µM: 67%
[1]; [4]
  activity at 30 µM: 51%
[2]
  inhibition at 10 µM: 74%
[2]; FIG. 6 curve fits, read-out: IC50, inhibition of potassium-stimulated Ca uptake of synaptosomes (FIG. 6)
  IC50: 3.3 µM
[2]; [6]
  IC50: 3 µM

## N=C(Nc1cccc2ccccc12)Nc1cccc2ccccc12 [N,N'-di-(1-naphthyl)guanidine]
[1]; [5]
  inhibition at 10 µM: 31%
[1]; [4]
  activity at 30 µM: 19%
  activity at 100 µM: 29%
[2]
  inhibition at 10 µM: 27%
[2]; [6]
  IC50: 23.6 ± 10 µM

## N=C(Nc1ccccc1I)Nc1ccccc1I [N,N'-di-(2-iodophenyl)guanidine]
[1]; [4]
  activity at 100 µM: 61%

## CCc1cccc(NC(=N)N(C)c2cccc(CC)c2)c1 [N,N'-di-(3-ethylphenyl)-N-methylguanidine]
[1]; [4]
  activity at 30 µM: 88%

## Cc1ccccc1NC(=N)Nc1ccccc1C [N,N'-di-(o-tolyl)guanidine]
[1]; [4]
  activity at 100 µM: 91%

## CCc1cccc(N(C)C(=N)Nc2cccc3ccccc23)c1 [N-(1-naphthyl)-N'-(m-ethylphenyl)-N'-methylguanidine]
[1]; Rattus norvegicus; 30 μM; Control = 100; K+ depolarization; read-out: relative level of glutamate release
  activity at 30 µM: 76%
[1]; Rattus norvegicus; 100 μM; Control = 100; K+ depolarization; read-out: relative level of glutamate release
  activity at 100 µM: 21%

## CC(C)c1ccccc1NC(=N)Nc1cccc2ccccc12 [N-(1-naphthyl)-N'-(o-isopropylphenyl)guanidine]
[1]; [4]
  activity at 30 µM: 100%

## CC(C)c1ccccc1NC(=N)N(C)c1cccc2ccccc12 [N-(1-naphthyl)-N-methyl-N'-(o-isopropylphenyl)guanidine]
[1]; [4]
  activity at 30 µM: 95%

## N=C(Nc1ccc(F)c2ccccc12)Nc1ccc2c3c(cccc13)CC2 [N-(3- and 5-Acenaphthyl)-N'-(4-Fluoronaphthyl)-Guanidine.HCl]
[1]; [5]
  inhibition at 10 µM: 85%
[1]; Rattus norvegicus, read-out: Inhibition of Glutamate Release (Persistent Component), IC50
  IC50: < 5 µM
[2]
  inhibition at 10 µM: 47%

## CCc1cccc(NC(=N)Nc2cccc3ccccc23)c1 [N-(3-ethylphenyl)-N'-(1-naphthyl)guanidine]
[1]; [4]
  activity at 30 µM: 59%

## N=C(Nc1ccc(O)c2ccccc12)Nc1ccc2c3c(cccc13)CC2 [N-(5-acenaphthyl)-N'-(4-hydroxynaphthyl)guanidine]
[1]; [5]
  inhibition at 10 µM: 25%
[2]
  inhibition at 10 µM: 35%

## N=C(Nc1ccc2c3c(cccc13)CC2)NC1C2CC3CC(C2)CC1C3 (centres unmarked) [N-(Adamantan-2-yl)-N'-(5-acenaphthyl)guanidine]
[1]; [5]
  inhibition at 10 µM: 63%
[1]; Rattus norvegicus; read-out: Inhibition of Glutamate Release (Persistent Component), IC50
  IC50: 5 µM
[2]
  inhibition at 10 µM: 69%
[2]; [6]
  IC50: 4.8 µM

## N=C(Nc1ccccc1I)NC12CC3CC(CC(C3)C1)C2 [N-(adamantan-1-yl)-N'-(2-iodophenyl)guanidine]
[1]; [4]
  activity at 30 µM: 39%

## Cc1ccccc1NC(=N)NC12CC3CC(CC(C3)C1)C2 [N-(adamantan-1-yl)-N'-(2-methylphenyl)guanidine]
[1]; [4]
  activity at 30 µM: 52%
  activity at 100 µM: 45%

## N=C(NC1CCCCC1)NC12CC3CC(CC(C3)C1)C2 [N-(adamantan-1-yl)-N'-cyclohexylguanidine]
[1]; [4]
  activity at 30 µM: 120%

## N=C(Nc1ccccc1I)NC1C2CC3CC(C2)CC1C3 (centres unmarked) [N-(adamantan-2-yl)-N'-(2-iodophenyl)guanidine]
[1]; [4]
  activity at 30 µM: 74%

## Cc1ccccc1NC(=N)NC1C2CC3CC(C2)CC1C3 (centres unmarked) [N-(adamantan-2-yl)-N'-(2-methylphenyl)guanidine]
[1]; [4]
  activity at 30 µM: 100%

## N=C(Nc1ccccc1I)Nc1cccc2ccccc12 [N-(α-naphthyl)-N'-(2-iodophenyl)guanidine]
[1]; [4]
  activity at 30 µM: 77%

## Cc1ccccc1NC(=N)NC1CCCCC1 [N-cyclohexyl-N'-(2-methylphenyl)guanidine]
[1]; [4]
  activity at 30 µM: 100%

## Nc1ncnc2c1ncn2[C@@H]1O[C@H](CO)[C@@H](O)[C@H]1O [adenosine, reference compound]
[3]; Rattus norvegicus, 1 mM, bath application, read-out: reduction of field EPSP amplitude
  inhibition at 1000 µM: 90%
[3]; bath application
  effect on field EPSP: almost completely eliminated field EPSP's
  effect on population spikes: totally blocked
[3]; following washout
  reversibility of effect: fully reversible following washout
